Biological target: T1, SIRT1 (Homo sapiens, UniProt Q96EB6)
T1 sequence (Q96EB6 1-747): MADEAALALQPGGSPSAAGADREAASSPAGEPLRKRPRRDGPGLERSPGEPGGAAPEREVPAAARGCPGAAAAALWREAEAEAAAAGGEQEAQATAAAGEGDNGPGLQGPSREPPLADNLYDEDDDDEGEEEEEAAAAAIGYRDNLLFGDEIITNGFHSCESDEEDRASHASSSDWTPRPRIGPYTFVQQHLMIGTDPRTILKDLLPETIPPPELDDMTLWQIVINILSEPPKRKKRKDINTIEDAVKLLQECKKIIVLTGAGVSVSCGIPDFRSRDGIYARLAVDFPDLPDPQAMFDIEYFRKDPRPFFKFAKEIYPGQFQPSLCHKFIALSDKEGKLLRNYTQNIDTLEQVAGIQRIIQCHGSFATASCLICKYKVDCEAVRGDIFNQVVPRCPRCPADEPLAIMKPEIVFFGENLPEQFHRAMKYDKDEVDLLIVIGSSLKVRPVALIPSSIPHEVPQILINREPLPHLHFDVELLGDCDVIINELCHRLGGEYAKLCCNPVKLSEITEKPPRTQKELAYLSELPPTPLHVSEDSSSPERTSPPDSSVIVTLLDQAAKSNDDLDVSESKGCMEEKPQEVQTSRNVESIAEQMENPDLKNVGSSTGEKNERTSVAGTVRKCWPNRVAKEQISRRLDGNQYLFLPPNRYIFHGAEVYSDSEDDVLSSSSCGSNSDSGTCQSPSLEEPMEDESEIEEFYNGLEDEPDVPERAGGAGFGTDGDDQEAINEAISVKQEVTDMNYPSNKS
Assay: Trp mass spectrometry assay of SIRT1 activation
Format: biochemical
Settings: Trp peptide Ac-R-H-K-K(Ac)-W-NH2 0.5 μM, 120 μM βNAD+, 10 nM SIRT1, 25 min, 25° C.

Compound | TRP Activity (EC1.5, concentration of compound required to increase SIRT1 activity by 50% over control) | TRP MAX RESP (percent maximum fold activation relative to control)
Cc1nc(-c2cccc(C(F)(F)F)c2)nc2c1N1CC[C@@H](C1)N2C(=O)Nc1ccc(OC[C@H](O)CO)cn1 [Example 48, (8S)—N-(5-((R)-2,3-dihydroxypropoxy)pyridin-2-yl)-4-methyl-2-(3-(trifluoromethyl)phenyl)-7,8-dihydro-5,8-methanopyrimido[4,5-b][1,4]diazepine-9(6H)-carboxamide] | B (EC1.5 1-25 μM) | A (Fold activation ≥150%)
Cc1nc(-c2cccc(C(F)(F)F)c2)nc2c1N1CCC[C@@H](C1)N2C(=O)Nc1nccc(OC[C@H](O)CO)n1 [Example 111, (9S)—N-(4-((R)-2,3-dihydroxypropoxy)pyrimidin-2-yl)-4-methyl-2-(3-(trifluoromethyl)phenyl)-8,9-dihydro-6H-5,9-methanopyrimido[4,5-b][1,4]diazocine-10(7H)-carboxamide] | A (EC1.5<1 μM) | A (Fold activation ≥150%)
Cc1cc(-c2ncc3c(n2)N(C(=O)Nc2cccnc2)[C@H]2CCCN3C2)ccn1 [Example 114, (9S)-2-(2-methylpyridin-4-yl)-N-(pyridin-3-yl)-8,9-dihydro-6H-5,9-methanopyrimido[4,5-b][1,4]diazocine-10(7H)-carboxamide] | B (EC1.5 1-25 μM) | A (Fold activation ≥150%)
O=C(Nc1ncc(OC[C@H](O)CO)cn1)N1c2nc(-c3cccc(C(F)(F)F)c3)ncc2N2CC[C@H]1C2 [Example 41, (8S)—N-(5-((R)-2,3-dihydroxypropoxy)pyrimidin-2-yl)-2-(3-(trifluoromethyl)phenyl)-7,8-dihydro-5,8-methanopyrimido[4,5-b][1,4]diazepine-9(6H)-carboxamide] | B (EC1.5 1-25 μM) | A (Fold activation ≥150%)
O=C(Nc1cnc(OC[C@@H](O)CO)cn1)N1c2nc(-c3cccc(C(F)(F)F)c3)ncc2N2CC[C@H]1C2 [Example 23, (8S)—N-(5-((S)-2,3-dihydroxypropoxy)pyrazin-2-yl)-2-(3-(trifluoromethyl)phenyl)-7,8-dihydro-5,8-methanopyrimido[4,5-b][1,4]diazepine-9(6H)-carboxamide] | B (EC1.5 1-25 μM) | A (Fold activation ≥150%)
O=C(Nc1cccc(OC[C@@H](O)CO)n1)N1c2nc(-c3cccc(C(F)(F)F)c3)ncc2N2CCC[C@H]1C2 [Example 84, (9S)—N-(6-((S)-2,3-dihydroxypropoxy)pyridin-2-yl)-2-(3-(trifluoromethyl)phenyl)-8,9-dihydro-6H-5,9-methanopyrimido[4,5-b][1,4]diazocine-10(7H)-carboxamide] | A (EC1.5<1 μM) | A (Fold activation ≥150%)
O=C(NCC(F)(F)F)c1ncc2c(n1)N(C(=O)Nc1ccccn1)[C@H]1CCN2C1 [Example 58, (8S)—N9-(pyridin-2-yl)-N2-(2,2,2-trifluoroethyl)-7,8-dihydro-5,8-methano pyrimido[4,5-b][1,4]diazepine-2,9(6H)-dicarboxamide] | B (EC1.5 1-25 μM) | A (Fold activation ≥150%)
O=C(NCC(F)(F)F)c1ncc2c(n1)N(C(=O)Nc1ccccn1)[C@H]1CCCN2C1 [Example 62, (9S)—N10-(pyridin-2-yl)-N2-(2,2,2-trifluoroethyl)-8,9-dihydro-6H-5,9-methanopyrimido[4,5-b][1,4]diazocine-2,10(7H)-dicarboxamide] | A (EC1.5<1 μM) | A (Fold activation ≥150%)
Cc1ccc(-c2nc(C)c3c(n2)N(C(=O)Nc2cccnc2)[C@H]2CCN3C2)cn1 [Example 7, (8S)-4-methyl-2-(6-methylpyridin-3-yl)-N-(pyridin-3-yl)-7,8-dihydro-5,8-methanopyrimido[4,5-b][1,4]diazepine-9(6H)-carboxamide] | B (EC1.5 1-25 μM) | A (Fold activation ≥150%)
C[C@@H](NC(=O)c1ncc2c(n1)N(C(=O)Nc1cc(OC[C@@H](O)CO)ncn1)[C@H]1CCCN2C1)C(F)(F)F [Example 75, (9S)—N10-(6-((S)-2,3-dihydroxypropoxy)pyrimidin-4-yl)-N2-((R)-1,1,1-trifluoropropan-2-yl)-8,9-dihydro-6H-5,9-methanopyrimido[4,5-b][1,4]diazocine-2,10(7H)-dicarboxamide] | B (EC1.5 1-25 μM) | A (Fold activation ≥150%)
C[C@@H](NC(=O)c1ncc2c(n1)N(C(=O)Nc1ccc(OC[C@@H](O)CO)cn1)[C@H]1CCCN2C1)C(F)(F)F [Example 119, (9S)—N10-(5-((S)-2,3-dihydroxypropoxy)pyridin-2-yl)-N2-((R)-1,1,1-trifluoropropan-2-yl)-8,9-dihydro-6H-5,9-methanopyrimido[4,5-b][1,4]diazocine-2,10(7H)-dicarboxamide] | A (EC1.5<1 μM) | A (Fold activation ≥150%)
Cc1nc(-c2cccc(C(F)(F)F)c2)nc2c1N1CCC[C@@H](C1)N2C(=O)Nc1cnc(OC[C@H](O)CO)nc1 [Example 106, (9S)—N-(2-((R)-2,3-dihydroxypropoxy)pyrimidin-5-yl)-4-methyl-2-(3-(trifluoromethyl)phenyl)-8,9-dihydro-6H-5,9-methanopyrimido[4,5-b][1,4]diazocine-10(7H)-carboxamide] | A (EC1.5<1 μM) | A (Fold activation ≥150%)
O=C(Nc1ccc(OC[C@@H](O)CO)nc1)N1c2nc(-c3cccc(C(F)(F)F)c3)ncc2N2CCC[C@H]1C2 [Example 101, (9S)—N-(6-((S)-2,3-dihydroxypropoxy)pyridin-3-yl)-2-(3-(trifluoromethyl)phenyl)-8,9-dihydro-6H-5,9-methanopyrimido[4,5-b][1,4]diazocine-10(7H)-carboxamide] | A (EC1.5<1 μM) | A (Fold activation ≥150%)
O=C(Nc1cnc(OC[C@@H](O)CO)cn1)N1c2nc(-c3cccc(C(F)(F)F)c3)ncc2N2CCC[C@H]1C2 [Example 83, (9S)—N-(5-((S)-2,3-dihydroxypropoxy)pyrazin-2-yl)-2-(3-(trifluoromethyl)phenyl)-8,9-dihydro-6H-5,9-methanopyrimido[4,5-b][1,4]diazocine-10(7H)-carboxamide] | A (EC1.5<1 μM) | A (Fold activation ≥150%)
O=C(Nc1cnc(OC[C@H](O)CO)nc1)N1c2nc(-c3cccc(C(F)(F)F)c3)ncc2N2CCC[C@H]1C2 [Example 104, (9S)—N-(2-((R)-2,3-dihydroxypropoxy)pyrimidin-5-yl)-2-(3-(trifluoromethyl)phenyl)-8,9-dihydro-6H-5,9-methanopyrimido[4,5-b][1,4]diazocine-10(7H)-carboxamide] | A (EC1.5<1 μM) | A (Fold activation ≥150%)
Cc1ccc2c(NC(=O)N3c4nc(C(=O)NCC(F)(F)F)ncc4N4CCC[C@H]3C4)n[nH]c2n1 [Example 65, (9S)—N10-(6-methyl-1H-pyrazolo[3,4-b]pyridin-3-yl)-N2-(2,2,2-trifluoroethyl)-8,9-dihydro-6H-5,9-methanopyrimido[4,5-b][1,4]diazocine-2,10(7H)-dicarboxamide] | B (EC1.5 1-25 μM) | A (Fold activation ≥150%)
O=C(Nc1cnc(OC[C@@H](O)CO)nc1)N1c2nc(-c3cccc(C(F)(F)F)c3)ncc2N2CCC[C@H]1C2 [Example 102, (9S)—N-(2-((S)-2,3-dihydroxypropoxy)pyrimidin-5-yl)-2-(3-(trifluoromethyl)phenyl)-8,9-dihydro-6H-5,9-methanopyrimido[4,5-b][1,4]diazocine-10(7H)-carboxamide] | A (EC1.5<1 μM) | A (Fold activation ≥150%)
CN(C)c1cc(-c2ncc3c(n2)N(C(=O)Nc2ccccn2)[C@H]2CCN3C2)ccn1 [Example 11, (8S)-2-(2-(dimethylamino)pyridin-4-yl)-N-(pyridin-2-yl)-7,8-dihydro-5,8-methano pyrimido[4,5-b][1,4]diazepine-9(6H)-carboxamide] | B (EC1.5 1-25 μM) | –

— patent US20180319810A1, “SUBSTITUTED BRIDGED UREA ANALOGS AS SIRTUIN MODULATORS” (GlaxoSmithKline Intellectual Property (No.2) Limited, priority 2014, published 2018)
